Measured values: patent publication US20060263802A1 (priority 2003, published 2006)

Legend:
Type in all cases: binding
[1] = tested on: human monoclonal antibody CRJA
[2] = tested on: human monoclonal antibody CRJB
[3] = tested on: human monoclonal antibody CRJA; remark: listed apart in the source
[4] = tested on: human monoclonal antibody CR57
[5] = tested on: human monoclonal antibody CR57; remark: listed apart in the source
[6] = tested on: human monoclonal antibody CRJB; remark: listed apart in the source

Sequence	Binding of CRJA (10 μg/ml) to looped/cyclic peptide (PEPSCAN-ELISA) [1]	Binding of CRJB (10 μg/ml) to looped/cyclic peptide (PEPSCAN-ELISA) [2]	Binding of CRJA to linear peptide (PEPSCAN-ELISA signal) [3]	Binding of CR57 to linear peptide (PEPSCAN-ELISA signal) [4]	Binding of CR57 (10 μg/ml) to looped/cyclic peptide (PEPSCAN-ELISA) [5]	Binding of CRJB to linear peptide (PEPSCAN-ELISA signal) [6]	Binding of CRJA (10 μg/ml) to looped/cyclic peptide (PEPSCAN-ELISA signal) [1]	Binding of CRJB (10 μg/ml) to looped/cyclic peptide (PEPSCAN-ELISA signal) [2]	Binding of CR57 (10 μg/ml) to looped/cyclic peptide (PEPSCAN-ELISA signal) [5]	Binding of CRJA to looped/cyclic peptide (PEPSCAN-ELISA signal) [1]	Binding of CRJB to looped/cyclic peptide (PEPSCAN-ELISA signal) [2]	Binding of human monoclonal antibody CRJA to linear peptide (PEPSCAN-ELISA signal) [3]	Binding of human monoclonal antibody CR57 to linear peptide (PEPSCAN-ELISA signal) [4]	Binding of CR57 to looped/cyclic peptide (PEPSCAN-ELISA signal) [5]	Binding of human monoclonal antibody CRJB to linear peptide (PEPSCAN-ELISA signal) [6]
ECLDALESIMTTKSV	110	90	103	91	96	112	–	–	–	–	–	–	–	–	–
EDEGCTNLSGFSYME	–	–	65	54	–	90	54	68	76	–	–	–	–	–	–
EDFVEVHLPDVHNQV	–	–	–	–	–	–	–	–	–	104	89	114	90	117	141
EECLDALESIMTTKS	105	70	98	82	105	120	–	–	–	–	–	–	–	–	–
EELVRKREECLDALE	104	2	118	69	79	112	–	–	–	–	–	–	–	–	–
EESLHNPYPDYRWLR	–	–	85	76	–	123	100	85	121	–	–	–	–	–	–
EGCTNLSGFSYMELK	–	–	59	51	–	114	38	73	39	–	–	–	–	–	–
EHLVVEELVRKREEC	93	83	76	82	89	114	–	–	–	–	–	–	–	–	–
EIEHLVVEELVRKRE	93	89	86	82	107	113	–	–	–	–	–	–	–	–	–
EILPSKGCLRVGGRC	111	97	106	104	132	112	–	–	–	–	–	–	–	–	–
ELKVGYILAIKMNGF	–	–	84	87	–	132	93	83	84	–	–	–	–	–	–
ELLESSVIPLVHPLA	73	88	85	90	112	133	–	–	–	–	–	–	–	–	–
ELVRKREECLDALES	98	71	97	82	93	113	–	–	–	–	–	–	–	–	–
EMQSSLLQQHMELLE	88	98	94	58	78	129	–	–	–	–	–	–	–	–	–
ENPRLGMSCDIFTNS	–	–	101	71	–	118	113	88	100	–	–	–	–	–	–
ENYTNFVGYVTTTFK	–	–	80	44	–	112	58	80	60	–	–	–	–	–	–
ERGLYKSLKGACKLK	104	72	101	90	100	118	–	–	–	–	–	–	–	–	–
ESIMTTKSVSFRRLS	49	92	61	62	80	111	–	–	–	–	–	–	–	–	–
ESLHNPYPDYRWLRT	–	–	80	92	–	132	106	92	123	–	–	–	–	–	–
ESLVIISPSVADLDP	–	–	120	88	–	125	118	65	99	–	–	–	–	–	–
ESSVIPLVHPLADPS	91	92	121	104	108	138	–	–	–	–	–	–	–	–	–
ETCGFVDERGLYKSL	75	78	85	64	90	120	–	–	–	–	–	–	–	–	–
EVHLPDVHNQVSGVD	–	–	–	–	–	–	–	–	–	103	107	104	91	125	150
FFNGIILGPDGNVLI	100	96	119	92	72	143	–	–	–	–	–	–	–	–	–
FGKAYTIFNKTLMEA	96	78	85	90	114	151	–	–	–	–	–	–	–	–	–
FKDGDEAEDFVEVHL	–	–	–	–	–	–	–	–	–	97	80	85	65	106	76
FKRKHFRPTPDACRA	–	–	86	64	–	92	86	72	148	–	–	–	–	–	–
FNGIILGPDGNVLIP	106	88	99	61	94	139	–	–	–	–	–	–	–	–	–
FNKTLMEADAHYKSV	101	129	86	111	124	141	–	–	–	–	–	–	–	–	–
FPIYTILDKLGPWSP	–	–	88	42	–	105	57	63	65	–	–	–	–	–	–
